Measurements from patent US8071641B2 (Yissum Research Development Company of the Hebrew …, priority 2004, dated 2011).
Where “and” joins values, the source holds several entries; their conditions need not be identical. Identical values can stand only once.

Experiments:
male NOD mice = assay: Diabetes induced in male NOD mice by transfer of spleen cells from diabetic female mice; type: in vivo
Protocol: Experimental design—Male NOD mice were irradiated (650 cGy), 24 hrs prior to intravenous injection of spleen cells (25-28×10^6) derived from female diabetic mice.
Intraperitoneal glucose tolerance tests (IPGTT)—see Example 1 above. Blood glucose levels above 140 mg/dl were considered diabetic by testing blood glucose at t-0, 60 min following IP injection of 1 gr/Kg body weight of glucose [Glucometer Elite apparatus (Bayer Diagnostics, ELKART, IN)]. Alternatively, urine samples were taken twice a week from diabetic mice for testing glucose levels. Urine glucose levels above 1000 mg/dl as determined by combi 9 Teststrips (Medi-Test, Macherey-Nagel, Duren, Germany) were considered diabetic;

mice [1] = settings: topical administration; cited from earlier work
mice [2] = settings: orally at doses of up to 10 mg/kg; cited from earlier work
[3] = test system: mouse peritoneal macrophages; settings: macrophages activated by LPS and IFNγ; cited from earlier work
NOD mice = assay: Spontaneous diabetes in NOD mice (glucosuria, IPGTT); type: in vivo
Excerpt: Animals: Non-obese diabetic (NOD) mice develop spontaneous autoimmune diabetes and are commonly used as an experimental model for human insulin-dependent diabetes mellitus [Miazaki A., Clin. Exp. Immunol. 60:622 (1998); Harada, M., Exp. Clin. Endocrinol. 89: 251 (1987)].
Six to twelve week old NOD/Ltj female mice were fed standard laboratory animal chow ad libitum and were kept in Specific Pathogen Free (SPF) animal house facility.
(§1) Mice injected with vehicle alone as well as untreated mice served as controls.
Glucosuria analysis: The severity of diabetes was determined according to glucosuria, which was measured using Combi 9 Teststrips (Medi-Test, Macherey-Nagel, Duren, Germany).
Intraperitoneal glucose tolerance tests (IPGTT): Blood samples were obtained from the paraorbital plexus at 0 and 60 minutes after administration of an i.p. glucose injection at a dose of 1 g/kg body weight. Plasma glucose levels were determined using Glucose Analyzer 2 (Beckman Instruments). A glucose level above 15 mmol/liter at the 60 min time point was considered as a positive IPGTT.

INFγ = assay: Plasma INFγ level in NOD mice by ELISA; type: in vivo; settings: 5 mg/kg i.p., mean of 5 mice
Protocol: as §1
Plasma INFγ: INFγ is associated with the progression of diabetes in NOD mice (Schloot, N. C., Diabetes Metab. Res. Rev. 18:64, 2002; Weiss et al., Cytokine 19:85, 2002; Braz, J., Med. Biol. Res. 35: 1347, 2000).
Plasma INFγ levels in mice were determined by ELISA kit (B.D Bioscience San Diego U.S.A).

human leukocytes = settings: cited from earlier work
peripheral receptors CB2 = peripheral receptors CB2 (Homo sapiens, UniProt P34972); settings: cited from earlier work
islets of Langerhans = assay: Histopathology of pancreatic islets (insulitis) in NOD mice; type: in vivo
Excerpt: as §1
Histopathology: Twenty weeks after onset of treatment mice were sacrificed. Pancreatic tissue samples were fixed in 4% buffered formation, embedded in paraffin, sectioned (5 μm thickness) and stained with hematoxylin and eosin. The stained pancreatic sections were observed under a microscope for infiltration of mononuclear lymphocytes into the islets of Langerhans (insulitis). The sections were scored by two uninformed observers as follows: 0, no cell infiltration; 1, cell infiltration in <20% of islet area; 2, cell infiltration in <50% of islet area; cell infiltration in <75% of islet area; and 4, cell infiltration in 90-100% of islet area.

[4] = 5 mg/kg CBD, 20 IP injections, 5 times/week, of 15 mice
[5] = high concentrations (5-24 pg/ml)
[6] = 20 weeks after onset of treatment, of 54 scored fields

Chain of peripheral receptors CB2 (P34972 whole entry): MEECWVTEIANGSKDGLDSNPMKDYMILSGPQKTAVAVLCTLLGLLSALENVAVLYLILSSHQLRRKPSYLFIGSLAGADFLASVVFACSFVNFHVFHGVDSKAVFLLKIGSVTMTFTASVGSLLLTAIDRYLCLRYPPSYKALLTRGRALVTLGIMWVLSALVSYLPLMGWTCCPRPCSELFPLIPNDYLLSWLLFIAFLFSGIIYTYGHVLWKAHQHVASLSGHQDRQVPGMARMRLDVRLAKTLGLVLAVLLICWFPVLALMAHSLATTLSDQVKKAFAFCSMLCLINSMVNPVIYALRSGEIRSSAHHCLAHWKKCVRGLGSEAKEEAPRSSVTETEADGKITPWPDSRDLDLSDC

For `C=C(C)[C@@H]1CCC(C)=C[C@H]1c1c(O)cc(CCCCC)cc1O` [CBD, Cannabidiol], the “Total % of diabetic mice” value (male NOD mice; 5 mg/kg CBD, 20 IP injections, 5 times/week) was 53%, the “No. of diabetic mice (urine glucose above 1000 mg/dl)” value (male NOD mice; [4]) was 6 and the “No. of mice w/ latent diabetes (blood glucose above 140 mg/dl 60 minutes following IP glucose injection)” value (male NOD mice; [4]) was 2. For the same compound, the “suppression of the appearance of diabetes” value (male NOD mice; male NOD mice injected with splenocytes from diabetic female NOD mice) was “about half”, the TPA-induced erythema (mice [1]) was “reduce” and the PBQ-induced writhing (mice [2]) was “inhibited”. The “nitric oxide (NO) produced” value [3] was “inhibited”, the “onset of symptoms in the CBD-treated diabetic mice” value (NOD mice; compared to untreated and vehicle-treated controls) was “substantially delayed” and the rate of protection (NOD mice; compared with controls) was “greater than 65%”. The “Diabetes appearance (weeks), mean and range of weeks of first positive diagnosis” value (NOD mice; female NOD mice, 5 mg/kg i.p.) was 18.4 (15-22) weeks, the “Diabetes incidence (%)” value (NOD mice; female NOD mice, 5 mg/kg i.p., 5 injections per week, 10-23 injections) was 21.7% and the “No. of diabetic mice” value (NOD mice; female NOD mice, 5 mg/kg i.p., 5 injections per week, 10-23 injections, of 23 mice) was 5. For the same compound, the “INFγ (pg/ml) ± SD” value (INFγ) was 43 pg/ml and 43 ± 21*^2 pg/ml, the IFNγ synthesis (human leukocytes; [5]) was “completely blocked” and the IL-1 production (human leukocytes; [5]) was “decreased”. For the same compound, the IL-2 secretion (human leukocytes; [5]) was “did not affect”, the TNFα production (human leukocytes; [5]) was “decreased” and the IFNγ production (human leukocytes; low concentrations) was “increased”. The “binding to peripheral receptors CB2” value (peripheral receptors CB2) was “does not bind”, the islets showing destruction (islets of Langerhans; 1/54) was 1.9% and the “islets showing total infiltration” value (islets of Langerhans; 6/54) was 11%. For the same compound, the “protected islets (intact or only partially infiltrated)” value (islets of Langerhans; 20 week period, 47/54) was 87%, the “No. of fully destroyed islets” value (islets of Langerhans; [6]) was 1 and the “No. of intact islets” value (islets of Langerhans; [6]) was 26. The “No. of partially infiltrated islets” value (islets of Langerhans; [6]) was 21, the “No. of totally infiltrated islets” value (islets of Langerhans; [6]) was 6 and the “only partially infiltrated pancreatic islets” value (islets of Langerhans; 21/54) was 39%. It also gave an intact pancreatic islets (islets of Langerhans; 26/54) of 48%.
